US4063015A, “Garamine and derivatives thereof” (Schering Corporation, priority 1975, dated 1977)
Values after ≈ are worked out from the molar mass of the structure shown. Like-named read-outs stand apart in the source and are kept apart here.

What was measured:
Trichomonas Vaginalis = assay: In vitro Activity Against Trichomonas Vaginalis, Table II; format: cell-based; conditions: for IC99: read-out: Minimal 99% suppression level; for MBC: read-out: Minimal Cidal Level
Description: (§1) In general, the novel pseudotrisaccharides of this invention (I) can be used to treat diverse types of susceptible microbial, viral, helmintic and protozoal infestations. These anthelmintic, antiprotozoal, antimicrobial and antiviral activities can readily be determined by standard in vivo and in vitro tests well known to the microbiologist and virologist. Of the compounds of this invention it can generally be stated that those 6'--NH2 or 6'--NHR4 compounds having a 2'--OH group are preferred for their activity against bacteria, trichomonas, amoeba, and helminths; those 2'--HN2 or 2'--NHR4 compounds having a 6'--OH group are preferred for their activity against bacteria, trichomona, amoeba, and helminths; those 2'--NH2 or 2'--NHR4 compounds having a 6'--NH2 or a 6'--NHR4 group are preferred for their antibacterial activity while those 2'--OH or 6'--OH compounds are preferred for their antitrichomonal activity.
(§2) Typical activity is illustrated by the following tables showing antibacterial and antiprotozoal activities.
In vitro Activity Against Trichomonas Vaginalis
STS - Simplified Tripticase Serum Medium, Baltimore Biological
Laboratories, Baltimore, Maryland.

[1] = system: Escherichia coli (N,K resistant); assay: Minimal Inhibitory Concentration (MIC), Table I; format: cell-based; conditions: neomycin, kanamycin resistant
Description: as §1, §2
(§3) Minimal Inhibitory Concentration (MIC) (mcg/ml)

Bacillus subtilis = assay: Minimal Inhibitory Concentration (MIC), Table I; format: cell-based
Description: as §1, §2, §3

Proteus mirabilis = assay: Minimal Inhibitory Concentration (MIC), Table I; format: cell-based
Description: as §1, §2, §3

Streptococcus pyogenes C = assay: Minimal Inhibitory Concentration (MIC), Table I; format: cell-based
Description: as §1, §2, §3

Serratia marcessans = assay: Minimal Inhibitory Concentration (MIC), Table I; format: cell-based
Description: as §1, §2, §3

[2] = system: Escherichia coli (T resistant); assay: Minimal Inhibitory Concentration (MIC), Table I; format: cell-based; conditions: tobramycin resistant
Description: as §1, §2, §3

[3] = system: Pseudomonas aeruginosa (G resistant); assay: Minimal Inhibitory Concentration (MIC), Table I; format: cell-based; conditions: garamycin resistant
Description: as §1, §2, §3

[4] = system: Klebsiella pneumoniae (N,M resistant); assay: Minimal Inhibitory Concentration (MIC), Table I; format: cell-based
Description: as §1, §2, §3

[5] = system: Klebsiella pneumoniae (G-resistant); assay: Minimal Inhibitory Concentration (MIC), Table I; format: cell-based; conditions: garamycin resistant
Description: as §1, §2, §3

[6] = system: Escherichia coli (G resistant); assay: Minimal Inhibitory Concentration (MIC), Table I; format: cell-based; conditions: garamycin resistant
Description: as §1, §2, §3

Providence = assay: Minimal Inhibitory Concentration (MIC), Table I; format: cell-based
Description: as §1, §2, §3

Escherichia coli = assay: Minimal Inhibitory Concentration (MIC), Table I; format: cell-based
Description: as §1, §2, §3

Staphylococcus aureus = assay: Minimal Inhibitory Concentration (MIC), Table I; format: cell-based
Description: as §1, §2, §3

Salmonella typhimurium = assay: Minimal Inhibitory Concentration (MIC), Table I; format: cell-based; conditions: Salmonella enterica
Description: as §1, §2, §3

Pseudomonas aeruginosa = assay: Minimal Inhibitory Concentration (MIC), Table I; format: cell-based
Description: as §1, §2, §3

pKa of garamine = format: physicochemical
Procedure: i. 1,3,3'-Tri-N-carbobenzoxygaramine (2.02 g.) was dissolved in methanol (100 ml.), and 10% palladium on carbon (1.0 g.) was added. The mixture was hydrogenated at 25° at 50 lbs/sq. in. for 16 hours, and the catalyst was filtered off, and washed with methanol. The filtrate was evaporated, and chromatographed on silica gel using the lower phase of a chloroform-methanol-concentrated ammonium hydroxide (2:1:1) system as the eluent. The fractions containing the garamine were concentrated in vacuo to small volume, and were then passed through Amberlite IR45 resin. The eluate was concentrated to small volume in vacuo, and the resulting solution was lyophilized to give garamine (750 mg.) (84%) as a colorless amorphous solid, m.p. 89°-99°, (Found: C, 48.31; H, 8.54; N, 12.87. C13 H27 N3 O6 requires: C, 48.60; H, 8.41; N, 13.08%), m/e 322 (M^+ +1), [α]D^26 + 135.4° (H2 O), pKa 8.5, .nu. max (nujol) 3300, 1060 cm.^-1, δ (D 2 O) 1.19 (3H, s, 4'--CH3), 2.51 (3H, s, 3'--NCH3), 2.57 (1H, d, J2',3' =10.5 Hz, H3'), 3.30 )1H, d, J5'a,5'e =12.5 Hz, H5'a), 3.79 (1H, dd, J2',3' =10.5 Hz, J1',2' =4 Hz, H2'), 4.03 (1H, d, J5'a,5'e =12.5 Hz, H5'e), 5.06 ppm. (1H, d, J1',2' =4 Hz, H1').

| Compound | IC99 (Trichomonas Vaginalis; 24 hr.) [µg/mL] | MBC (Trichomonas Vaginalis; 24 hr.) [µg/mL] | IC99 (Trichomonas Vaginalis; 48 hr.) [µg/mL] | MBC (Trichomonas Vaginalis; 48 hr.) [µg/mL] | MIC [1] [µg/mL] | MIC (Bacillus subtilis) [µg/mL] | MIC (Proteus mirabilis) [µg/mL] | MIC (Streptococcus pyogenes C) [µg/mL] | MIC (Serratia marcessans) [µg/mL] | MIC [2] [µg/mL] | MIC [3] [µg/mL] | MIC [4] [µg/mL] | MIC [5] [µg/mL] | MIC [6] [µg/mL] | MIC (Providence) [µg/mL] | MIC (Escherichia coli) [µg/mL] | MIC (Staphylococcus aureus) [µg/mL] | MIC (Salmonella typhimurium) [µg/mL] | MIC (Pseudomonas aeruginosa) [µg/mL] | pKa (pKa of garamine) |
| --- | --- | --- | --- | --- | --- | --- | --- | --- | --- | --- | --- | --- | --- | --- | --- | --- | --- | --- | --- | --- |
| CCN[C@@H]1C[C@H](O)[C@@H](CO)O[C@@H]1O[C@H]1[C@H](O)[C@@H](O[C@H]2OC[C@](C)(O)[C@H](NC)[C@H]2O)[C@H](N)C[C@@H]1N [3'-Deoxy-2'-N-ethylgentamicin X2] | < 2.5 | < 2.5 | < 2.5 | < 2.5 | 17.5 (≈ 35.4 µM) | > 25 | > 25 | > 25 | 3 (≈ 6.07 µM) | 3 (≈ 6.07 µM) | > 25 | 3 to 7.5 (≈ 6.07 to 15.2 µM) | > 25 | > 25 | > 25 |  |  |  |  |  |
| CN[C@@H]1[C@@H](O)[C@@H](O[C@@H]2[C@@H](O)[C@H](O[C@H]3O[C@H](CO)[C@@H](O)[C@H](O)[C@H]3O)[C@@H](N)C[C@H]2N)OC[C@]1(C)O [O-α-D-Glucopyranosyl-(1→4)-garamine] | 10 | 25 (≈ 51.7 µM) | < 10 | 10 (≈ 20.7 µM) |  |  |  |  |  |  |  |  |  |  |  |  |  |  |  |  |
| CN[C@@H]1[C@@H](O)[C@@H](O[C@@H]2[C@@H](O)[C@H](O[C@H]3O[C@H](CN)[C@@H](O)C[C@H]3N)[C@@H](N)C[C@H]2N)OC[C@]1(C)O [3'-deoxy-JI-20A, O-2,6-Diamino-2,3,6-trideoxy-α-D-glucopyranosyl-(1→4)-garamine] |  |  |  |  | 0.08 to 0.8 (≈ 0.172 to 1.72 µM) | < 0.05 | 0.3 (≈ 0.644 µM) | 0.8 to 7.5 (≈ 1.72 to 16.1 µM) | 3 (≈ 6.44 µM) | 17.5 (≈ 37.6 µM) | > 25 | 0.08 (≈ 0.172 µM) |  | > 25 | > 25 | 0.08 (≈ 0.172 µM) | 0.08 to 0.3 (≈ 0.172 to 0.644 µM) | 0.75 (≈ 1.61 µM) | 0.08 to 0.8 (≈ 0.172 to 1.72 µM) |  |
| CN[C@@H]1[C@@H](O)[C@@H](O[C@@H]2[C@@H](O)[C@H](O)[C@@H](N)C[C@H]2N)OC[C@]1(C)O [Garamine, 0-3-deoxy-4-C-methyl-3-(methylamino)-β-L-arabinopyranosyl-(1→6)-2-deoxy-D-streptamine] |  |  |  |  |  |  |  |  |  |  |  |  |  |  |  |  |  |  |  | 8.5 |
| CN[C@@H]1[C@@H](O)[C@@H](O[C@@H]2[C@@H](O)[C@H](O[C@H]3O[C@H](CN)[C@@H](O)[C@H](O)[C@H]3N)[C@@H](N)C[C@H]2N)OC[C@]1(C)O [JI-20A] |  |  |  |  |  | < 0.05 | 7.5 (≈ 15.6 µM) | 17.5 (≈ 36.3 µM) | > 25 | > 25 | > 25 | > 25 | > 25 | > 25 | > 25 | 0.3 (≈ 0.623 µM) | 0.3 (≈ 0.623 µM) | 0.3 (≈ 0.623 µM) | 7.5 to 17.5 (≈ 15.6 to 36.3 µM) |  |
| CCN[C@H]1[C@@H](O[C@H]2[C@H](O)[C@@H](O[C@H]3OC[C@](C)(O)[C@H](NC)[C@H]3O)[C@H](N)C[C@@H]2N)O[C@H](CO)[C@@H](O)[C@@H]1O [2'-N-Ethylgentamicin X2] | < 10 | 10 (≈ 19.6 µM) | < 2.5 | 2.5 (≈ 4.9 µM) | > 25 | 3 (≈ 5.88 µM) | > 25 |  | > 25 | > 25 | > 25 | > 25 | > 25 |  | > 25 |  | 3 to 7.5 (≈ 5.88 to 14.7 µM) | 3 (≈ 5.88 µM) |  |  |
| CNC[C@H]1O[C@H](O[C@H]2[C@H](O)[C@@H](O[C@H]3OC[C@](C)(O)[C@H](NC)[C@H]3O)[C@H](N)C[C@@H]2N)[C@H](O)C[C@@H]1O [3'-Deoxy-6'-N-methylgentamicin B] |  |  |  |  | 0.75 to 17.5 (≈ 1.56 to 36.4 µM) | < 0.1 | 0.75 to 3 (≈ 1.56 to 6.24 µM) | 0.1 to 17.5 (≈ 0.208 to 36.4 µM) | 3 (≈ 6.24 µM) | > 25 |  | 0.3 to 0.75 (≈ 0.624 to 1.56 µM) | > 25 |  | 3 (≈ 6.24 µM) | 0.1 to 0.75 (≈ 0.208 to 1.56 µM) | 0.1 to 0.3 (≈ 0.208 to 0.624 µM) |  | 0.1 to 3 (≈ 0.208 to 6.24 µM) |  |
| CN[C@@H]1[C@@H](O)[C@@H](O[C@@H]2[C@@H](O)[C@H](O[C@H]3O[C@H](CO)[C@@H](O)C[C@H]3N)[C@@H](N)C[C@H]2N)OC[C@]1(C)O [3'-Deoxygentamicin X2] | 10 | 10 (≈ 21.4 µM) | < 10 | 10 (≈ 21.4 µM) | 3 to 7.5 (≈ 6.43 to 16.1 µM) | 0.03 (≈ 0.0643 µM) | 7.5 (≈ 16.1 µM) |  | 0.8 (≈ 1.71 µM) | 17.5 (≈ 37.5 µM) | > 25 | 0.8 to 3 (≈ 1.71 to 6.43 µM) | > 25 | > 25 | > 25 | 3 to 7.5 (≈ 6.43 to 16.1 µM) | 0.5 to 7.5 (≈ 1.07 to 16.1 µM) | 7.5 (≈ 16.1 µM) | 3 to 7.5 (≈ 6.43 to 16.1 µM) |  |
| CN[C@@H]1[C@@H](O)[C@@H](O[C@@H]2[C@@H](O)[C@H](O[C@H]3O[C@H](CO)[C@@H](O)[C@H](O)[C@H]3N)[C@@H](N)C[C@H]2N)OC[C@]1(C)O (stereo in doubt) [Gentamicin X2] | 10 | 10 (≈ 20.7 µM) | < 10 | 10 (≈ 20.7 µM) | > 25 | 0.08 (≈ 0.166 µM) | 3 (≈ 6.22 µM) | 1 to 17.5 (≈ 2.07 to 36.3 µM) | > 25 | > 25 | > 25 | > 25 | > 25 | > 25 | > 25 | 0.8 to 3 (≈ 1.66 to 6.22 µM) | 0.3 to 7.5 (≈ 0.622 to 15.5 µM) |  |  |  |
